Experimental data taken from patent publication US20140142127A1, “Stable Compositions of HMG-COA Reductase Inhibitors and Omega-3 Oils” (Almburg, LLC, priority 2012, published 2014).

Experiment: Storage stability of statin Ca salt suspensions in omega-3 oils, statin and lactone quantified by HPLC
Format: physicochemical
Protocol: (§1) Atorvastatin Ca (At) in ethyl ester of EPA (97% purity from Equatec) was prepared as follows: The drug substance was weighed into a glass vessel containing a magnetic stir bar and the oil was then added by volume to make a 10 mg/ml suspension. The clear oil made an off-white suspension with the drug, which was uniformly dispersed by magnetic stirring. Each formulation also had 1% BHA via ethanol solution (1% of volume of the final suspension from a 100 mg/mL solution of BHA in anhydrous ethanol, resulting in 1 mg/mL BHA or 0.1% w/V). While stirring the suspensions were individually transferred by mass into 250 ul glass vial inserts to about 260 mg, which was essentially a complete fill. Vials were crimped with a teflon-backed seal and placed on stability stations: 25 C/60% RH, 40 C/75% RH and −20 C for reference. Samples were pulled at monthly intervals and prepared for HPLC analysis using a C18 column, samples were transferred, fully dissolved and diluted to 10.0 ml with dry DMF. At and corresponding lactone were quantified from HPLC chromatograms against standards of the At API. Integration was done using the Perkin Elmer software supplied with the HPLC system.
as §1, with “omega-3 free fatty acid” for “ethyl ester of EPA (97% purity from Equatec)”
as §1, with “Rosuvastatin” for “Atorvastatin”, “(Ro)” for “(At)”
RosuvastatinCa (Ro) in omega-3 free fatty acid was prepared as follows: The drug substance was weighed into a glass vessel containing a magnetic stir bar and the oil was then added by volume to make a 10 mg/ml suspension. The clear oil made an off-white suspension with the drug, which was uniformly dispersed by magnetic stirring. […]

[1] = Ethyl ester omega-3 oil, additive CaCO3, 25° C./60% RH, 3 months
[2] = Ethyl ester omega-3 oil, additive CaCO3, 40° C./75% RH, 1 month
[3] = Ethyl ester omega-3 oil, additive CaCO3, 40° C./75% RH, 3 months
[4] = Ethyl ester omega-3 oil, additive CaCl2, 25° C./60% RH, 3 months
[5] = Ethyl ester omega-3 oil, additive CaCl2, 40° C./75% RH, 1 month
[6] = Ethyl ester omega-3 oil, additive CaCl2, 40° C./75% RH, 3 months
[7] = Ethyl ester omega-3 oil, additive CaHPO4, 25° C./60% RH, 3 months
[8] = Ethyl ester omega-3 oil, additive CaHPO4, 40° C./75% RH, 1 month
[9] = Ethyl ester omega-3 oil, additive CaHPO4, 40° C./75% RH, 3 months
[10] = Ethyl ester omega-3 oil, additive None, 40° C./75% RH, 1 month
[11] = Free acid omega-3 oil, additive CaCO3, 25° C./60% RH, 3 months
[12] = Free acid omega-3 oil, additive CaCO3, 40° C./75% RH, 1 month
[13] = Free acid omega-3 oil, additive CaCO3, 40° C./75% RH, 3 months
[14] = Free acid omega-3 oil, additive CaCl2, 25° C./60% RH, 3 months
[15] = Free acid omega-3 oil, additive CaCl2, 40° C./75% RH, 1 month
[16] = Free acid omega-3 oil, additive CaCl2, 40° C./75% RH, 3 months
[17] = Free acid omega-3 oil, additive CaHPO4, 25° C./60% RH, 3 months
[18] = Free acid omega-3 oil, additive CaHPO4, 40° C./75% RH, 1 month
[19] = Free acid omega-3 oil, additive CaHPO4, 40° C./75% RH, 3 months
[20] = Free acid omega-3 oil, additive None, 40° C./75% RH, 1 month
[21] = Triglyceride omega-3 oil, additive None, 40° C./75% RH, 1 month

CC(C)c1c(C(=O)Nc2ccccc2)c(-c2ccccc2)c(-c2ccc(F)cc2)n1CC[C@@H](O)C[C@@H](O)CC(=O)O [Atorvastatin, Atorvastatin Ca]
At Lactone [1]: 0.26%
Atorvastatin [1]: 110.7%
At Lactone [2]: 0.34%
Atorvastatin [2]: 97.6%
At Lactone [3]: 1.87%
Atorvastatin [3]: 111.8%
At Lactone [4]: 0.35%
Atorvastatin [4]: 98.2%
At Lactone [5]: 0.06%
Atorvastatin [5]: 103.2%
At Lactone [6]: 0.48%
Atorvastatin [6]: 97.1%
At Lactone [7]: 0.38%
Atorvastatin [7]: 98.0%
At Lactone [8]: 0.21%
Atorvastatin [8]: 100.9%
At Lactone [9]: 4.80%
Atorvastatin [9]: 90.8%
At Lactone [10]: 0.18%
Atorvastatin [10]: 98.0%
At Lactone [11]: 24.6%
Atorvastatin [11]: 77.3%
At Lactone [12]: 1.5%
Atorvastatin [12]: 101.8%
At Lactone [13]: 35.2%
Atorvastatin [13]: 76.4%
At Lactone [14]: 18.6%
Atorvastatin [14]: 84.2%
At Lactone [15]: 13.5%
Atorvastatin [15]: 87.3%
At Lactone [16]: 19.8%
Atorvastatin [16]: 90.7%
At Lactone [17]: 32.2%
Atorvastatin [17]: 80.9%
At Lactone [18]: 13.6%
Atorvastatin [18]: 99.5%
At Lactone [19]: 25.2%
Atorvastatin [19]: 92.0%
At Lactone [20]: 75.6%
Atorvastatin [20]: 22.8%
At Lactone [21]: 4.6%
Atorvastatin [21]: 85.3%

CC(C)c1nc(N(C)S(C)(=O)=O)nc(-c2ccc(F)cc2)c1/C=C/[C@@H](O)C[C@@H](O)CC(=O)O [Rosuvastatin, Rosuvastatin Ca]
Ro Lactone [1]: 0.31%
Rosuvastatin [1]: 101.9%
Ro Lactone [2]: 0.79%
Rosuvastatin [2]: 79.8%
Ro Lactone [3]: 5.56%
Rosuvastatin [3]: 86.1%
Ro Lactone [4]: 0.23%
Rosuvastatin [4]: 110.4%
Ro Lactone [5]: 0.09%
Rosuvastatin [5]: 93.1%
Ro Lactone [6]: 1.03%
Rosuvastatin [6]: 108.8%
Ro Lactone [7]: 0.26%
Rosuvastatin [7]: 98.2%
Rosuvastatin [8]: 96.2%
Ro Lactone [9]: 9.75%
Rosuvastatin [9]: 83.7%
Ro Lactone [10]: 0.92%
Rosuvastatin [10]: 95.0%
Ro Lactone [11]: 1.0%
Rosuvastatin [11]: 100.2%
Ro Lactone [12]: 0.25%
Rosuvastatin [12]: 105.4%
Ro Lactone [13]: 0.83%
Rosuvastatin [13]: 92.4%
Ro Lactone [14]: 0.44%
Rosuvastatin [14]: 101.9%
Ro Lactone [15]: 0.28%
Rosuvastatin [15]: 105.2%
Ro Lactone [16]: 0.39%
Rosuvastatin [16]: 98.7%
Ro Lactone [17]: 0.74%
Rosuvastatin [17]: 99.9%
Ro Lactone [18]: 0.17%
Rosuvastatin [18]: 99.5%
Ro Lactone [19]: 0.69%
Rosuvastatin [19]: 102.2%
Ro Lactone [20]: 60.0%
Rosuvastatin [20]: 39.1%
Ro Lactone [21]: 2.5%
Rosuvastatin [21]: 100.6%
